{"source": "patent EP4789666A1", "about": "“RNA M6A REGULATOR COMPOSITION, PREPARATION METHOD THEREFOR, AND USE THEREOF” (SHANGHAI MERNA THERAPEUTICS CO. LTD, priority 2023, dated 2025)", "test_system": "human HaCaT keratinocytes", "test": "m6A methylation level of human keratinocytes (EpiQuik m6A RNA methylation quantification kit)", "type": "cell-based", "settings": "24 hours, relative to control group 1", "protocol": "HaCaT cells were cultured in DMEM culture medium containing 10% fetal bovine serum, 100 U/mL penicillin, and 100 µg/mL streptomycin. Culture dishes were placed in an incubator containing 5% CO2 for culture at 37°C for 24 hours. An equal volume of DMSO was added in control group 1, 50 nM sorafenib, capecitabine, docetaxel, and osimertinib were respectively added in control groups A, B, C, and D, and 400 nM test compounds or nicotinamide were respectively added in sample groups A1, A2, B1, B2, C1, C2, D1, and D2 after the addition of 50 nM corresponding compounds. The cells were continuously cultured for 24 hours, washed with PBS, and then collected by high-speed centrifugation. Total RNA was extracted using Trizol reagent (Sigma Aldrich), and RNA m6A methylation of a sample was quantitatively detected using an EpiQuik m6A RNA methylation quantification kit. The concentrations of positive control samples for a standard curve were 0.01 ng/µl, 0.02 ng/µl, 0.05 ng/µl, 0.1 ng/µl, 0.2 ng/µl, and 0.5 ng/µl. The absorbance at 450 nm was read using a microplate reader (Tecan GENios). A quantitative calculation formula for m6A is as follows: m6A (ng) = (absorbanceofsamplewell-absorbanceofbackgroundwell)/slope of standard curve [formula] m6A (%) = m6A (ng)/RNA amount of sample (ng)*100%. [formula]\nTable 1: Fold change in m6A methylation level relative to control group 1", "data": [{"compound": "NC(=O)[C@H]1CCCc2c1[nH]c1ccc(Cl)cc21", "note": "[Compound of formula (I), (S)-6-chloro-2,3,4,9-tetrahydro-1H-carbazole-carboxamide]", "values": [{"measurement": "m6A fold change", "setting": "400 nM after 50 nM capecitabine", "result": 1.1}, {"measurement": "m6A fold change", "setting": "400 nM after 50 nM docetaxel", "result": 1.0}, {"measurement": "m6A fold change", "setting": "400 nM after 50 nM osimertinib", "result": 1.2}, {"measurement": "m6A fold change", "setting": "400 nM after 50 nM sorafenib", "result": 1.4}]}]}
